Patent US8552161B2, “Saponin compounds, methods of preparation thereof, use thereof and pharmaceutical compositions” (Uniwersytet W Bialymstoku, priority 2009, dated 2013)

How the values were obtained:
[1] = system: human glioblastoma cell line T98; assay: Calcein AM cytotoxicity assay, T98; assay type: cell-based; details: 72 h, means ± SD, three independent experiments in triplicate
Protocol: Stock solutions (10 mmol/l) of the tested compounds were prepared by dissolving relevant quantity of the substance in DMSO. Dulbecco's modified Eagle's medium (DMEM, RPMI 1640, F-12 medium), fetal bovine serum (FBS), L-glutamine, penicillin, streptomycin were purchased from Sigma (MO, USA). Calcein AM was obtained from Molecular Probes (Invitrogen Corporation, CA, USA).
The screening cell lines (T-lymphoblastic leukaemia cell line CEM, breast carcinoma cell line MCF-7, cervical carcinoma cell line HeLa, human glioblastoma cell line T98, human malignant melanoma G-361, human osteogenic sarcoma cell line HOS, carcinomic human alveolar basal epithelial cells A549, human colon carcinoma cells HCT 116 and human fibroblasts BJ) were obtained from the American Type Culture Collection (Manassas, Va., USA). All cell lines were cultured in DMEM medium (Sigma, Mo., USA). Medium was supplemented with 10% heat-inactivated fetal bovine serum, 2 mmol/l L-glutamine and 1% penicillin-streptomycin. The cell lines were maintained under standard cell culture conditions at 37° C. and 5% CO2 in a humid environment. Cells were subcultured twice or three times a week using the standard trypsinization procedure.
Cytotoxic activities of the novel compounds, obtained according to this invention, were tested in vitro against following cancer cell lines: T-lymphoblastic leukemia cell line CEM; breast carcinoma cell line MCF7, lung carcinoma cell line A549, cervical carcinoma cell line HeLa, malignant melanoma cell line G-361, osteosarcoma cell line HOS, human glioblastoma cell line T98, human colon carcinoma cells HCT 116 and normal human fibroblasts BJ. All cell lines were cultured in DMEM medium (Sigma, Mo., USA) supplemented with 10% fetal calf serum, 2 mM glutamine, 100 U/ml penicillin and 100 μg/ml streptomycin, at 37° C. in a fully humidified atmosphere containing 5% CO2. Suspensions of these lines (ca. 1.0×10^5 cells/ml) were placed in 96-well microtitre plates and after 3 h of stabilization the tested compounds were added in serially diluted concentrations. Saponins were dissolved in dimethylsulfoxide (DMSO) before addition to cultures. Control cultures were treated with DMSO alone. The final concentration of DMSO in the reaction mixtures never exceeded 0.6%. Four-fold dilutions of the intended test concentration were added at time zero in 20 μl aliquots to the microtitre plate wells. Usually, each test compound was evaluated at six 4-fold dilutions and in routine testing; the highest well concentration was 50 μM, although this varied in a few cases, depending on the test compound. After 72 h of culture, the cells were incubated with Calcein AM solution (Molecular Probes) for 1 h. The fluorescence of viable cells was quantified using a Fluoroscan Ascent instrument (Microsystems). The percentage of surviving cells in each well was calculated from the equation […]=(ODdrug exposed well/mean ODcontrol wells)×100%. The IC50 value, the drug concentration lethal to 50% of the tumour cells, was calculated from the obtained dose-response curves.

[2] = system: T-lymphoblastic leukemia cell line CEM; assay: Calcein AM cytotoxicity assay, CEM; assay type: cell-based; details: Calcein AM assay, 72 h; means ± SD, three independent experiments in triplicate
Protocol: (§1) Stock solutions (10 mmol/l) of the tested compounds were prepared by dissolving relevant quantity of the substance in DMSO. […] Calcein AM was obtained from Molecular Probes (Invitrogen Corporation, CA, USA).
(§2) All cell lines were cultured in DMEM medium (Sigma, Mo., USA). Medium was supplemented with 10% heat-inactivated fetal bovine serum, 2 mmol/l L-glutamine and 1% penicillin-streptomycin. The cell lines were maintained under standard cell culture conditions at 37° C. and 5% CO2 in a humid environment. Cells were subcultured twice or three times a week using the standard trypsinization procedure.
(§3) All cell lines were cultured in DMEM medium (Sigma, Mo., USA) supplemented with 10% fetal calf serum, 2 mM glutamine, 100 U/ml penicillin and 100 μg/ml streptomycin, at 37° C. in a fully humidified atmosphere containing 5% CO2. Suspensions of these lines (ca. 1.0×10^5 cells/ml) were placed in 96-well microtitre plates and after 3 h of stabilization the tested compounds were added in serially diluted concentrations. Saponins were dissolved in dimethylsulfoxide (DMSO) before addition to cultures. Control cultures were treated with DMSO alone. The final concentration of DMSO in the reaction mixtures never exceeded 0.6%. Four-fold dilutions of the intended test concentration were added at time zero in 20 μl aliquots to the microtitre plate wells. Usually, each test compound was evaluated at six 4-fold dilutions and in routine testing; the highest well concentration was 50 μM, although this varied in a few cases, depending on the test compound. After 72 h of culture, the cells were incubated with Calcein AM solution (Molecular Probes) for 1 h. The fluorescence of viable cells was quantified using a Fluoroscan Ascent instrument (Microsystems).

[3] = system: normal human fibroblasts BJ; assay: Calcein AM cytotoxicity assay, normal fibroblasts BJ; assay type: cell-based; details: 72 h, means ± SD, three independent experiments in triplicate
Protocol: as §1, §2, §3

CEM cells = assay: Flow cytometry cell cycle and apoptosis (subG1) analysis; assay type: cell-based
Protocol: The leukemia cancer CEM cells were trypsinized, seeded in 6 well plates, and immediately incubated with the respective compounds. […] Triton X-100, and 50 μg/ml propidium iodide in PBS. DNA content was assessed with a flow cytometer (Cell Lab Quanta SC—MPL, Beckman Coulter, Calif., USA). In a histogram analysis, distribution of cells into the subG1 (“apoptotic cells”), the G0/G1, S and the G2/M peak was quantified using software MultiCycle AV (Phoenix Flow Systems, CA, USA).

[4] = system: breast carcinoma cell line MCF7; assay: Calcein AM cytotoxicity assay, MCF7; assay type: cell-based, human; details: Calcein AM assay, 72 h; means ± SD, three independent experiments in triplicate
Protocol: as §1, §2, §3

Question: What does the source list for C/C=C/C(=O)OC[C@@H](C)[C@@]1(O)[C@@H](O[C@@H]2OC[C@H](O)[C@H](O[C@@H]3OC[C@@H](O)[C@H](O)[C@H]3OC(=O)c3ccc(OC)cc3)[C@H]2OC(C)=O)C[C@H]2[C@@H]3CC=C4C[C@@H](O)CC[C@]4(C)[C@H]3CC[C@@]21C [Compound 7, (20R)-21-O-[(E)-but-2-enoyl]-20-methylpregn-5-ene-3β,16β,17α,21-tetraol 16-O-{2-O-(4-methoxybenzoyl)-β-D-xylopyranosyl-(1→3)-2′-O-acetyl-α-L-arabinopyranoside}]?
Answer: IC50 [1]: 940 ± 20 nM; IC50 [2]: 340 ± 40 nM; IC50 [3]: 230 ± 80 nM; subG1 phase of the cell cycle (apoptotic cells) (CEM cells; CEM cell line after treatment): increase in subG1 phase; amount of debris (subG1) compared with untreated controls (CEM cells; CEM cells, 24 h (FIG. 3)): 3 fold; distribution of CEM cells in cell cycle phases (FIG. 2) (CEM cells; CEM cells, increasing concentrations): increased the number of S-phase and G2/M cells with concomitant decrease of G0/G1 cells in dose-dependent manner; Apoptosis subG1 (CEM cells; CEM, 24 h, 3 μM): 15%; Cell cycle distribution G0/G1 (CEM cells; CEM, 24 h, 3 μM): 14%; Cell cycle distribution G2/M (CEM cells; CEM, 24 h, 3 μM): 30%; Cell cycle distribution S (CEM cells; CEM, 24 h, 3 μM): 41%; IC50 [4]: 840 ± 510 nM
